Test results from patent publication EP4691485A1, “MUCOSAL ADJUVANT” (priority 2023, dated 2024).

Key:
Assay type in all cases: in vivo, BALB/c mice
[1] = system: Influenza HA protein antigen (A/California/7/2009(H1N1)pdm); assay: ELISA of antigen-specific IgA and IgG after nasal vaccination with CL401, CL413 or CL531 (Example 2); conditions: 1 µg HA alone or with 0.662 nmol or 6.62 nmol test compound
[2] = system: influenza virus (A/Singapore/GP1908/2015(IVR-180)(H1N1)pdm09); conditions: HA 0.1 µg alone or with 3 µg adjuvant, twice, 3-week interval, sampled day 38, Fig. 1
[3] = system: HA antigen (A/Singapore/GP1908/2015(IVR-180)(H1N1)pdm09); assay: ELISA of antigen-specific IgA and IgG after nasal vaccination (Example 1); conditions: HA 0.1 µg alone or with 3 µg adjuvant, twice; for antigen-specific IgA level in the nasal lavage fluid: day 38, 2^2-fold dilution, Fig. 2; for antigen-specific IgG level in serum: day 38, 2^12-fold dilution, Fig. 3
[4] = system: A/Singapore/GP1908/2015(IVR-180)(H1N1)pdm09; conditions: HA 0.1 µg alone or with 3 µg adjuvant, nasal, twice; for Serum HI antibody titers, Geometric Mean Titer (GMT): 3-week interval, serum day 38
SARS-CoV-2 S protein = assay: ELISA of antigen-specific IgA and IgG after nasal vaccination with SARS-CoV-2 antigen (Example 3); conditions: 3 µg S protein alone or with 0.3 µg TY001 S-form
[5] = system: Influenza virus HA protein antigen A/Guangdong-Maonan/SWL1536/2019(CNIC-1909)(H1N1); assay: ELISA of antigen-specific IgA and IgG, improved formulation with chondroitin sulfate sodium (Example 4); conditions: Fig. 7
Description: For the nasal administration test, 7-week-old female BALB/c mice were used, with 8 mice per group. Influenza virus HA protein antigen A/Guangdong-Maonan/SWL1536/2019(CNIC-1909)(H1N1) (Research Foundation for Microbial Diseases of Osaka University) was used. Vaccine groups included HA 0.1 µg alone, or HA 0.1 µg with 0.1 µg of TY001 S-form as adjuvant, and groups with/without 0.01% chondroitin sulfate sodium as an additive.
The vaccine solution was administered intranasally to mice at 5 µL per nostril (10 µL/mouse) twice, with a 3-week interval. Two weeks after the second administration (day 35), nasal lavage fluid and serum were collected, and antigen-specific IgA levels in nasal lavage fluid and IgG levels in serum were measured by ELISA.

[6] = system: influenza virus: A/Guangdong-Maonan/SWL1536/2019(CNIC-1909)(H1N1); assay: Infection protection test: viral titer in nasal wash fluid (Example 5)
Description: (§1) For the nasal administration test, 7-week-old female BALB/c mice (9-10 mice per group) were used. Influenza virus HA protein antigen: A/Guangdong-Maonan/SWL1536/2019(CNIC-1909)(H1N1) and influenza virus: A/Guangdong-Maonan/SWL1536/2019(CNIC-1909)(H1N1) (Osaka University Microbial Disease Research Institute) were used. The vaccine formulations included HA 0.1 µg alone, and a formulation containing HA 0.1 µg co-administered with TY001 S-form at doses of 0.01-0.3 µg, and 0.01% chondroitin sulfate sodium as an additive. Vaccine solutions were administered into the nasal cavity, 5 µL into each nostril (10 µL/mouse), twice at a 3-week interval. As a control, a group subcutaneously administered with HA 0.1 µg alone was set up. Two weeks after the second administration (day 35), viral fluid was administered at 2 µL into each nostril (1x10^5 TCID50/mouse). Three days later (day 38), nasal wash fluid and serum were collected. The viral titer in the nasal wash fluid, antigen-specific IgA in nasal wash fluid, and IgG in serum were measured by ELISA.

[7] = system: Influenza virus HA protein antigen: A/Guangdong-Maonan/SWL1536/2019(CNIC-1909)(H1N1); assay: ELISA of antigen-specific IgA and IgG after vaccination and virus challenge (Example 5); conditions: twice, HA 0.1 µg alone or with TY001 S-form 0.01-0.3 µg and 0.01% chondroitin sulfate sodium
Description: as §1

[8] = system: Influenza virus HA protein antigen: A/Guangdong-Maonan/SWL1536/2019(CNIC-1909)(H1N1); assay: Comparative test with various adjuvants: ELISA of antigen-specific IgA and IgG (Example 6); conditions: HA 0.1 µg + 1 µg TY001 S-form (0.01% chondroitin sulfate sodium), twice
Description: For the nasal administration test, 8-week-old female BALB/c mice (6 mice per group) were used. Influenza virus HA protein antigen: A/Guangdong-Maonan/SWL1536/2019(CNIC-1909)(H1N1) (Osaka University Microbial Disease Research Institute) was used. Vaccine formulations included HA 0.1 µg alone, and those co-administered intranasally with 1 µg of TY001 S-form (formulation containing 0.01% chondroitin sulfate sodium as an additive), Cholera Toxin B subunit (CTB) (Fujifilm Wako Pure Chemical Corporation), CpG ODN (ODN 1826) (InvivoGen), or Polyinosinic-polycytidylic acid (Poly(I:C)) (InvivoGen). Each vaccine solution was administered into the nasal cavity, 5 µL into each nostril (10 µL/mouse), twice at a 3-week interval. A group subcutaneously administered with HA 0.1 µg + Alum 2 mg was also used. Two weeks after the second administration (day 35), nasal wash fluid, bronchoalveolar lavage fluid, and serum were collected. Antigen-specific IgA in nasal wash fluid and bronchoalveolar lavage fluid, and IgG in serum and bronchoalveolar lavage fluid were measured by ELISA.

[9] = HA 0.1 µg + 0.1 µg TY001 S-form + 0.01% chondroitin sulfate sodium, compared with no additive
[10] = HA 0.1 µg + 0.1 µg TY001 S-form, nasal, twice, 3-week interval, day 35

CCCCCCCCCCCCCCCC(=O)OCC(CSC[C@H](N)C(=O)Nc1ccc(Cn2c(O)nc3c(N)nc(NCCCC)nc32)cc1)OC(=O)CCCCCCCCCCCCCCC (some centres unmarked) [CL401]
antigen-specific IgG antibodies in plasma ([1]; day 0 and day 14, day 27, rank order, Fig. 4 lower panel): CL413 > CL531 > CL401 | antigen-specific IgA in nasal lavage fluid ([1]; day 0 and day 14, day 28, rank order, Fig. 4 upper panel): CL413 > CL531 > CL401

CCCCCCCCCCCCCCCC(=O)OC[C@H](CSC[C@H](N)C(=O)NCCCNCCCCNCCCNC(=O)CNC(=O)c1ccc(Cn2c(O)nc3c(N)nc(NCCCC)nc32)cc1)OC(=O)CCCCCCCCCCCCCCC [TY001 R-form, (20R,24R)-20-amino-1-(4-((6-amino-2-(butylamino)-8-hydroxy-9H-purin-9-yl)methyl)phenyl)-1,4,19-trioxo-22-thia-2,5,9,14,18-pentaazapentacosane-24,25-diyl dipalmitate]
viral titer in the nasal lavage fluid [2]: showed suppression of viral infection | antigen-specific IgA level in the nasal lavage fluid [3]: showed induction of antigen-specific IgA antibodies in the nasal cavity | antigen-specific IgG level in serum [3]: showed an increase | HI antibody titer in serum [4]: showed an increase | Serum HI antibody titers, Geometric Mean Titer (GMT) [4]: 69.6

CCCCCCCCCCCCCCCC(=O)OC[C@@H](CSC[C@H](N)C(=O)NCCCNCCCCNCCCNC(=O)CNC(=O)c1ccc(Cn2c(O)nc3c(N)nc(NCCCC)nc32)cc1)OC(=O)CCCCCCCCCCCCCCC [TY001 S-form, (20R,24S)-20-amino-1-(4-((6-amino-2-(butylamino)-8-hydroxy-9H-purin-9-yl)methyl)phenyl)-1,4,19-trioxo-22-thia-2,5,9,14,18-pentaazapentacosane-24,25-diyl dipalmitate]
viral titer in the nasal lavage fluid [2]: showed suppression of viral infection | antigen-specific IgA level in the nasal lavage fluid [3]: showed induction of antigen-specific IgA antibodies in the nasal cavity | antigen-specific IgG level in serum [3]: showed an increase | HI antibody titer in serum [4]: showed an increase | Serum HI antibody titers, Geometric Mean Titer (GMT) [4]: 85.7 | antigen-specific IgA level in the nasal lavage fluid (SARS-CoV-2 S protein; day 0 and 21, day 35, 2^3-fold dilution, Fig. 5): showed induction of antigen-specific IgA antibodies in the nasal cavity | antigen-specific IgG level in serum (SARS-CoV-2 S protein; day 0 and 21, day 35, 2^8-fold dilution, Fig. 6): showed an increase in antigen-specific IgG antibodies | antibody-inducing effect, IgA in nasal wash fluid [5, 9]: stronger | antibody-inducing effect, IgG in serum [5, 9]: stronger | antigen-specific IgA in nasal wash fluid [5, 10]: induced | antigen-specific IgG in serum [5, 10]: induced | viral titer in nasal wash fluid ([6]; HA 0.1 µg + TY001 S-form 0.1 µg + 0.01% chondroitin sulfate sodium, Fig. 8): no virus detected in any individual | viral titer in nasal wash fluid ([6]; HA 0.1 µg + TY001 S-form 0.3 µg + 0.01% chondroitin sulfate sodium, Fig. 8): no virus detected in any individual | viral titer in nasal wash fluid ([6]; twice, HA 0.1 µg alone or with TY001 S-form 0.01-0.3 µg and 0.01% chondroitin sulfate sodium, virus 1x10^5 TCID50/mouse day 35, day 38, Fig. 8): dose-dependent inhibition of viral infection | antigen-specific IgG in serum ([7]; nasal, day 38, Fig. 9): dose-dependent induction of nasal IgA and serum IgG | antigen-specific IgA in nasal wash fluid ([7]; day 38, Fig. 9): dose-dependent induction of nasal IgA and serum IgG | antigen-specific IgA in bronchoalveolar lavage fluid ([8]; nasal, day 35, Fig. 10): also induced | antigen-specific IgG in bronchoalveolar lavage fluid ([8]; nasal, day 35, Fig. 10): also induced | antibody-inducing ability (antigen-specific IgA in nasal wash fluid and bronchoalveolar lavage fluid, IgG in serum and bronchoalveolar lavage fluid) ([8]; compared with CTB, CpG ODN (ODN 1826), Poly(I:C) nasal and Alum 2 mg subcutaneous, day 35, Fig. 10): stronger antibody-inducing ability at a lower dose compared to any other adjuvant
